Reference: US8314120B2, “Small molecule potentiators of metabotropic glutamate receptors” (Abbott GmbH & Co. KG, priority 2010, dated 2012)
Counter-ions that a name gives are not always drawn. Like-named read-outs stand apart in the source and are kept apart here.

Tests used:
mGlu2 [1] = biological target: T1, mGlu2 (Homo sapiens, UniProt Q14416); assay: FLIPR intracellular Ca2+ assay, potentiation of glutamate at mGlu2 receptor in HEK293 cell clone; type: cell-based; parameters: V5/His (named in the vector only); expressed in transfected cells; host or cells: HEK293; conditions: potentiation of 1 μM glutamate, HEK293 cells expressing human mGlu2, rGLAST and Galpha16
T1 sequence (Q14416 19-872): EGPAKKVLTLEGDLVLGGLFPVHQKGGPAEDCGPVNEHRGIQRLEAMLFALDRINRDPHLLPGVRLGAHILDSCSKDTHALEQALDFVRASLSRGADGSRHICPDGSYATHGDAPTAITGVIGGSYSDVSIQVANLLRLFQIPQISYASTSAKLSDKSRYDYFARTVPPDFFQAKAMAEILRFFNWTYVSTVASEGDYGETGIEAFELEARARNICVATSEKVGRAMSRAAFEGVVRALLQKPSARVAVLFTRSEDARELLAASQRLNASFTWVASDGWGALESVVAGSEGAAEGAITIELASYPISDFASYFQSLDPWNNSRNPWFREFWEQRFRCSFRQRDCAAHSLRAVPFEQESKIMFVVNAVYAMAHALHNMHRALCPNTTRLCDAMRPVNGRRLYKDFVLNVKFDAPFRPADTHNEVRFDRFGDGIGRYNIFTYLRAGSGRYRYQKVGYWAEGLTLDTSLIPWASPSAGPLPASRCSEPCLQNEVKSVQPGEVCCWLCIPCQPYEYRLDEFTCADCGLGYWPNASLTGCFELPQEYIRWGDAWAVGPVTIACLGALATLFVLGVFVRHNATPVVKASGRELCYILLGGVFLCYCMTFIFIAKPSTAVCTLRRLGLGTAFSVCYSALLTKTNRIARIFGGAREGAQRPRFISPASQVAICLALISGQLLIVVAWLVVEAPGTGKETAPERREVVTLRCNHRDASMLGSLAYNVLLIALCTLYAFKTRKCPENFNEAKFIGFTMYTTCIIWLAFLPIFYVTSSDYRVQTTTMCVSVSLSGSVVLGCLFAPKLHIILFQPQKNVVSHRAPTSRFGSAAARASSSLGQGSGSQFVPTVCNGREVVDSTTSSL
Method: For the purpose of the present study, a cell line permanently expressing the human mGlu2 receptor, the rat glutamate transporter rGLAST and the alpha subunit of G16 was generated by transfection. Briefly, HEK293 cells were seeded in petri dishes (diameter 15 cm) at a density of 2×10^6 cells in DMEM with glutamax (Invitrogen, GIBCO #21885-025), 10% dialyzed Fetal Calf Serum (Invitrogen, Gibco #26400-044), and incubated at 37° C. over night. The following day cells were transfected with Lipofectamine (Invitrogen, Gibco #18324-012) as recommended by the manufacturer, using linearized pcDNA3.1 (V5/His)-hmGlu2 receptor (ScaI) and pcDNA3.1 Zeo-Ga16 IRES rGLAST (SspI). After transfection the cells were selected in DMEM Glutamax Medium (Invitrogen, GIBCO #21885-025), containing 10% dialyzed fetal calf serum (FCS; (Invitrogen, Gibco #26400-044), antibiotic/antimycotic, 800 μg/ml Geneticin (G418) and 250 μg/ml Zeozin. Single clones were isolated manually and further subcloned by serial dilution.
The function of the mGlu2 receptor was determined by evaluating intracellular Ca^2+ concentrations under standard conditions in a fluorometric imaging plate reader (FLIPR, Molecular Devices, Union City, Calif. 94587, USA) by measuring the response of the cells to a test compound. The FLIPR assay is a common functional assay to monitor native or recombinant Galphaq-coupled receptors, and native or recombinant receptors normally linked to other G-protein signalling cascades, which are coupled to calcium through co-expression of an alpha subunit of a promiscuous or chimeric G-protein. In the assay the increase of intracellular calcium is measured through a calcium-dependent fluorescent dye (e.g. Fluo-4 AM) in the FLIPR instrument.
For selection of a suitable cell clone and also the subsequent measurements of the selected clone, 4×10^4 cells/well were plated on poly-D-lysine coated Biocoat-plates multiwell 96 in DMEM Glutamax (GIBCO #21885-025)/10% dialyzed FCS over night. The following day, the medium was aspirated and exchanged for glutamate-free DMEM (Gibco #21969-035), without FCS or glutamine, containing 50 μg/ml gentamycin (Gibco #15750). Cells were again incubated over night. Before the measurement, cells were loaded with 2 μM Fluo-4 AM (Molecular Probes, F14201; stock solution 1 mM in DMSO) and 0.02% Pluronic F127 (Molecular Probes, P3000; stock solution 10% in DMSO) in DMEM medium (Gibco #21969-035) for 45 minutes at 37° C. in a final volume of 100 μl per well. Finally, the plates were washed in a BioTec cell washer with HBSS, containing 20 mM HEPES. The end-volume in each well was 100 μl. The plates were subsequently measured in a fluorometric imaging plate reader (FLIPR, Molecular Devices, Union City, Calif. 94587, USA).
The compounds of the present invention were tested in the above-described FLIPR assay using the selected cell clone. Increased intracellular calcium levels were quantified following addition of test compound (agonism), as well as following addition of a submaximal concentration of 1 micromolar (1 μM) glutamate (potentiation).
For the determination of the effect of the test compound by itself (agonism) or by increasing the response to a submaximal concentration (e.g. 1 μM) of glutamate (potentiation), the resulting signal is determined by subtraction of the background fluorescence from the maximal fluorescent peak height of the respective response. In the FLIPR instrument the compound is given to the cell and its fluorescence response quantified by the FLIPR instrument (agonism). The concentration at which the compound exerts half its maximal effect is named the ‘effective concentration 50’ or ‘EC50’. The maximal effect induced by the test substance is normalized to the maximal effect exerted by 100 μM glutamate (set at 100%).
Ten minutes after addition of the test compound to the plate, 1 μM glutamate is added. A potentiator enhances the response of the receptor to glutamate. […]

mGlu2 [2] = biological target: T1, mGlu2; conditions: agonist; cited from earlier work

EC50 (mGlu2 [1]) [nM] | SMILES | EC50 (mGlu2 [2]) [nM]
500 to 2000 | CCCCN1Cc2cc(Nc3cncc(-c4ccccc4)c3)cc(Cl)c2C1=O [Example 4, 2-butyl-7-chloro-5-[(5-phenylpyridin-3-yl)amino]-2,3-dihydro-1H-isoindol-1-one] | 
2000 to 10000 | CCCCN1Cc2cc(Nc3cc(N4CCNCC4)cnc3Cl)ccc2C1=O [Example 6, 2-butyl-5-{[2-chloro-5-(piperazin-1-yl)pyridin-3-yl]amino}-2,3-dihydro-1H-isoindol-1-one] | 
500 to 2000 | CCCCN1Cc2cc(Nc3cncc(Cl)c3)ccc2C1=O [Example 7, 2-butyl-5-[(5-chloropyridin-3-yl)amino]-2,3-dihydro-1H-isoindol-1-one] | 
2000 to 10000 | CCCCN1Cc2cc(Nc3cncc(N4CCNCC4)c3)ccc2C1=O [Example 5, 2-butyl-5-{[5-(piperazin-1-yl)pyridin-3-yl]amino}-2,3-dihydro-1H-isoindol-1-one] | 
2000 to 10000 | CCCCN1Cc2cc(Nc3cnc4ccccc4n3)ccc2C1=O [Example 18, 2-butyl-5-(quinoxalin-2-ylamino)-2,3-dihydro-1H-isoindol-1-one] | 
< 500 | CCCCN1Cc2c(Oc3cncc(-c4ccccc4)c3)cccc2C1=O [Example 12, 2-butyl-4-[(5-phenylpyridin-3-yl)oxy]-2,3-dihydro-1H-isoindol-1-one trifluoroacetate] | 
 | N[C@@]1(C(=O)O)CO[C@H]2[C@H](C(=O)O)[C@H]21 [LY379268] | 3
500 to 2000 | CCCCN1Cc2ccc(Oc3cncc(-c4ccccc4)c3)cc2C1=O [Example 15, 2-butyl-6-[(5-phenylpyridin-3-yl)oxy]-2,3-dihydro-1H-isoindol-1-one trifluoroacetate] | 
< 500 | CCCCN1CCc2cc(Oc3cncc(-c4ccccc4)c3)ccc2C1=O [Example 14, 2-butyl-6-[(5-phenylpyridin-3-yl)oxy]-3,4-dihydroisoquinolin-1(2H)-one trifluoroacetate] | 
< 500 | CCCCN1CCc2c(Oc3cncc(-c4ccccc4)c3)cccc2C1=O [Example 13, 2-butyl-5-[(5-phenylpyridin-3-yl)oxy]-3,4-dihydroisoquinolin-1(2H)-one trifluoroacetate] | 
2000 to 10000 | CCCCN1Cc2cc(Nc3cncc(N4CCN(C)CC4)c3)ccc2C1=O [Example 10, 2-butyl-5-{[5-(4-methylpiperazin-1-yl)pyridin-3-yl]amino}-2,3-dihydro-1H-isoindol-1-one] | 
500 to 2000 | CCCCN1CCc2c(Oc3cc(N4CCN(C)CC4)cnc3Cl)cccc2C1=O [Example 22, 2-butyl-5-{[2-chloro-5-(4-methylpiperazin-1-yl)pyridin-3-yl]oxy}-3,4-dihydroisoquinolin-1(2H)-one] | 
500 to 2000 | COCCN1Cc2cc(Nc3cncc(-c4ccccc4)c3)ccc2C1=O [Example 19, 2-(2-methoxyethyl)-5-[(5-phenylpyridin-3-yl)amino]-2,3-dihydro-1H-isoindol-1-one] | 
< 500 | CCCCN1Cc2cc(Nc3cncc(-c4ccccc4)n3)ccc2C1=O [Example 16, 2-butyl-5-(6-phenyl-pyrazin-2-ylamino)-2,3-dihydro-isoindol-1-one] | 
500 to 2000 | CCCCN1Cc2cc(-c3cncc(-c4ccccc4)c3)ccc2C1=O [Example 24, 2-butyl-5-(5-phenylpyridin-3-yl)-2,3-dihydro-1H-isoindol-1-one] | 
< 500 | CCCCN1Cc2cc(Oc3cncc(-c4ccccc4)c3)ccc2C1=O [Example 11, 2-butyl-5-[(5-phenylpyridin-3-yl)oxy]-2,3-dihydro-1H-isoindol-1-one] | 
< 500 | CCCCN1Cc2cc(Nc3cncc(N4CCOCC4)c3)ccc2C1=O [Example 8, 2-butyl-5-{[5-(morpholin-4-yl)pyridin-3-yl]amino}-2,3-dihydro-1H-isoindol-1-one] | 
2000 to 10000 | CCCCN1Cc2cc(Nc3cccnc3Cl)ccc2C1=O [Example 20, 2-butyl-5-[(2-chloropyridin-3-yl)amino]-2,3-dihydro-1H-isoindol-1-one] | 
500 to 2000 | CCCCN1Cc2cc(Nc3cnc4ccccc4c3)ccc2C1=O [Example 17, 2-butyl-5-(quinolin-3-ylamino)-2,3-dihydro-1H-isoindol-1-one] | 
500 to 2000 | CCCCN1Cc2cc(Nc3cc(N4CCN(C)CC4)cnc3Cl)ccc2C1=O [Example 9, 2-butyl-5-{[2-chloro-5-(4-methylpiperazin-1-yl)pyridin-3-yl]amino}-2,3-dihydro-1H-isoindol-1-one] | 
500 to 2000 | CCCCN1CCc2c(Oc3cc(N4CCNCC4)cnc3Cl)cccc2C1=O [Example 21, 2-butyl-5-{[2-chloro-5-(piperazin-1-yl)pyridin-3-yl]oxy}-3,4-dihydroisoquinolin-1(2H)-one] | 
500 to 2000 | CCCCN1Cc2cc(Cc3cncc(-c4ccccc4)c3)ccc2C1=O [Example 23, 2-butyl-5-[(5-phenylpyridin-3-yl)methyl]-2,3-dihydro-1H-isoindol-1-one] | 
